Assay results: US20020082273A1, “Agents for use in the treatment of alzheimer's disease” (priority 1998, published 2002)
Values joined by “and” are separate entries in the source; they are usually repeats but may differ in a detail not shown here. Equal entries are not always repeated. “Also recorded” adds a separate entry of the source.

Key:
TBARS assay of OH. = format: biochemical; details: scavenger 5 mM; Fe^3+ or Cu^2+
Description: All data points are means ±SD, n=3.
The Thiobarbituric Acid-Reactive Substance (TBARS) assay for incubation mixtures with Fe^3+ or Cu^2+ was performed in a 96-well microtiter format modified from established protocols (Gutteridge et al. Biochim. Biophys. Acta 759: 38-41 (1983)). Aβ peptide species (10 μM) or Vitamin C (100 μM), were incubated with Fe^3+ or Cu^2+ (1 μM) and deoxyribose (7.5 mM, Sigma) in PBS, pH 7.4. Following incubation (37° C., 1 hour), glacial (17 M) acetic acid and 2-thiobarburic acid (1%, w/v in 0.05 M NaOH, Sigma) were added and heated (100° C., 10 min). The final mixtures were placed on ice for 1-3 minutes before absorbances at 532 nm were measured. The net absorbance change for each sample were obtained by deducting the absorbance from a control sample consisting of identical chemical components except for the Vitamin C or Aβ peptides.

Aβ = assay: Effect of agents on Cu^2+-induced SDS-resistant Aβ polymerization; format: biochemical, human
Description: Cu^2+-induced SDS-resistant oligomerization of Aβ: Aβ (2.5 μM), 150 mM NaCl, 20 mM hepes (pH 6.6, 7.4, 9) with or without ZnCl2 or CuCl2. Following incubation (37° C.), aliquots of each reaction (2 ng peptide) were collected at 0 d, 1 d, 3 d and 5 d and western blotted using anti-Aβ monoclonal antibody 8E10 (FIG. 9). Migration of the molecular size markers are indicated (kDa). […] Cu^2+ (2-30 μM) induced SDS-resistant polymerization of peptide. […] It should be noted that other means of visualizing and/or determining the presence or absence of polymerization other than western blot analysis may be used. Such other means include but are not limited to density sedimentation by centrifugation of the samples.
It is possible that the decreased polymerization may be due to chelation of Cu^2+ by BC, however given the low binding affinity of BC for Cu^2+ compared with Aβ, it seems likely that the chelation of Cu^+ by BC prevents it from inducing SDS-resistant Ad polymerization. Therefore, Aβ may undergo a hydroxyl radical modification that promotes its assembly into SDS-resistant polymers.

[1] = tested on: Aβ deposits of AD-affected brain; assay: Extraction (solubilization) of Aβ from post-mortem AD brain tissue homogenates, western blot densitometry; format: biochemical, human
Description: Identical regions of frontal cortex (0.5 g) from post-mortem brains of individuals with AD, as well as non-AD conditions, were homogenized in TBS, […] ±metal chelators.
0.5 g of prefrontal cortex was dissected and homogenized in PBS ±chelator as indicated. The homogenate was then centrifuged (100,000 g) and the supernatant removed, and a sample taken for western blot assay using anti-Aβ specific antibodies after Tricine PAGE. Densitometry was performed against synthetic peptide standards.
Densitometry of Aβ western blots (FIGS. 19A-19C) was performed for a series of 6 AD brain samples homogenized in the presence of chelators as indicated.
Next the ability of clioquinol to extract Aβ deposits from human brain was examined. […] Fragments of prefrontal cortex from individual post-mortem samples with the histopathological diagnosis of AD were homogenized in PBS, pH 7.4, and then pelleted after centrifugation. The pellets were then washed with agitation twice for 30 minutes, 4° C., with PBS or PBS containing clioquinol (100% =0.8 μM clioquinol). The suspension was then pelleted (10,000 g for 30 minutes) and the supernatant removed (S1) for western blot analysis using Aβ-specific antibodies (illustrated). The pellet was treated a second time in this experiment with agitation and centrifugation, and the second supernatant (S2) analysed.
Soluble Aβ (ng/g tissue) was determined as described. Total Aβ was determined following formic acid extraction of otherwise untreated tissue.
(§1) Suitable quantities of gray matter from each subject were minced to serve as pools of homogenous tissue. […] To obtain the soluble fraction, the homogenates were centrifuged at 100,000× g for 30 min (Beckman J180, Beckman instruments, Fullerton, California) and the supernatant collected in 1 ml aliquots and stored on ice or immediately frozen at −70° C. In each experiment, all protein was precipitated from 1 ml of supernatant from each treatment group using 1:5 ice cold 10% trichloracetic acid and pelleted in a bench top microfuge (Heraeus, Osteroder, Germany) at 10,000× g. The remaining pellet was frozen at −70° C.
Precipitated protein was subjected to SDS polyacrylamide gel electrophoresis (SDS-PAGE) on Novex pre-cast 10-20% Tris-Tricine gels followed by Western transfer onto 0.2 μm nitrocellulose membrane (Biorad, Hercules, Calif.). […] Each gel included two or more lanes containing known quantities of synthetic Aβ which served as internal reference standards. Blot images were captured by a Relisys scanner with transparency adapter (Teco Information Systems, Taiwan, ROC) and densitometry conducted using the NIH Image 1.6 program (National Institutes for Health, USA. Modified for PC by Scion Corporation, Frederick, Md.), calibrated using a step diffusion chart. For quantitation of Aβ in brain extracts, the internal reference standards of synthetic Aβ were utilized to produce standard curves from which values were interpolated.

[2] = tested on: Aβ deposits of age-matched control brain; assay: Extraction of Aβ from age-matched non-AD control brain tissue; format: biochemical, human
Description: as §1
Precipitated protein was subjected to SDS polyacrylamide gel electrophoresis (SDS-PAGE) on Novex pre-cast 10-20% Tris-Tricine gels followed by Western transfer onto 0.2 μm nitrocellulose membrane (Biorad, Hercules, Calif.). Aβ was detected using the WO2, G210 or G211 monoclonal antibodies (Ida, N., et al., J. Biol. Chem., 271:22908 (1996)) in combination with HRP-conjugated rabbit anti-mouse IgG (Dako, Denmark), and visualized using chemiluminescence (ECL, Amersham Life Science, Little Chalfont, Buckinghamshire, UK). Each gel included two or more lanes containing known quantities of synthetic Aβ which served as internal reference standards. Blot images were captured by a Relisys scanner with transparency adapter (Teco Information Systems, Taiwan, ROC) and densitometry conducted using the NIH Image 1.6 program (National Institutes for Health, USA. Modified for PC by Scion Corporation, Frederick, Md.), calibrated using a step diffusion chart. For quantitation of Aβ in brain extracts, the internal reference standards of synthetic Aβ were utilized to produce standard curves from which values were interpolated.

[3] = Residual metals in post-centrifugation pellets of brain homogenates (ICP-AES); format: biochemical, human; details: Table 6
Aβ1-42 = Aβ1-42 (Homo sapiens, UniProt P05067); assay: Effect of metal chelators on H2O2 production from Aβ1-42; format: biochemical
[4] = Table 5, NIST database, cited from earlier work
[5] = Table 5; NIST database; cited from earlier work
[6] = Table 5; NIST database; cited from earlier work; remark: listed apart in the source

Aβ1-42, sequence (P05067 672-713 limits assumed): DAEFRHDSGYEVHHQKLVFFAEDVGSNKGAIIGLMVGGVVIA

## OC[C@@H](O)[C@@H](O)[C@H](O)[C@H](O)CO [mannitol]
TBARS assay of OH.
  effect of OH. scavengers on OH. generation by Aβ1-42: neither were able to quench
Aβ
  effect on Cu^2+-induced SDS-resistant Aβ polymerization: abolishes the polymerization

## C[S+](C)[O-] [DMSO, dimethyl sulfoxide]
TBARS assay of OH.
  effect of OH. scavengers on OH. generation by Aβ1-42: neither were able to quench

## bathocuproinedisulfonic acid [BC]
[1]
  % of total Aβ extracted: 3.1% and 7.2% and 6%
  % of total Aβ extracted, + PBS: 2.36% and 5.4% and 3.7%
  Extractable Aβ (% of total), X (mean): (5.4) %
  Extractable Aβ, X (mean): 4.10 µg/g
  X C/PBS (mean chelator / PBS): 3.90
  concentration response of Aβ solubilization: typical concentration-dependent response with no decline in effectiveness
  mean increase of Aβ solubilization over PBS alone: around 4 fold
[2]; AC subject 1, chelator 2 mM
  Extractable Aβ: 0.03 µg/g
  Extractable Aβ (% of total): (5) %
[2]; AC subject 2, chelator 2 mM
  Extractable Aβ: 0.24 µg/g
  Extractable Aβ (% of total): (5.7) %
[2]; AC subject 3, chelator 2 mM
  Extractable Aβ: 0.29 µg/g
  Extractable Aβ (% of total): (11.0) %
[2]; AC subject 4, chelator 2 mM
  Extractable Aβ: 0.08 µg/g
  Extractable Aβ (% of total): (2.6) %
[2]; AC subject 5, chelator 2 mM
  Extractable Aβ: 0.98 µg/g
  Extractable Aβ (% of total): (27.2) %
[2]; AC subjects 1-5, chelator 2 mM
  Extractable Aβ (% of total), X (mean): (10.3) %
  Extractable Aβ, X (mean): 0.32 µg/g
[2]; age-matched control tissue, chelator 2 mM
  X C/PBS (mean chelator / PBS): 1.28
[2]; non-demented, aged-matched controls
  effect on Aβ solubilization compared with AD tissue: much reduced
[3]; chelator 0.001 mM
  Residual Al in extracted pellet: 88 mg/kg
  Residual Ca in extracted pellet: 1306 mg/kg
  Residual Cu in extracted pellet: 13 mg/kg
  Residual Fe in extracted pellet: 275 mg/kg
  Residual Mg in extracted pellet: 225 mg/kg
  Residual Zn in extracted pellet: 47 mg/kg
[3]; chelator 0.004 mM
  Residual Al in extracted pellet: 33 mg/kg
  Residual Ca in extracted pellet: 489 mg/kg
  Residual Cu in extracted pellet: 12 mg/kg
  Residual Fe in extracted pellet: 231 mg/kg
  Residual Mg in extracted pellet: 234 mg/kg
  Residual Zn in extracted pellet: 47 mg/kg
[3]; chelator 0.01 mM
  Residual Al in extracted pellet: 73 mg/kg
  Residual Ca in extracted pellet: 762 mg/kg
  Residual Cu in extracted pellet: 13 mg/kg
  Residual Fe in extracted pellet: 256 mg/kg
  Residual Mg in extracted pellet: 223 mg/kg
  Residual Zn in extracted pellet: 49 mg/kg
[3]; chelator 0.04 mM
  Residual Al in extracted pellet: 38 mg/kg
  Residual Ca in extracted pellet: 753 mg/kg
  Residual Cu in extracted pellet: 15 mg/kg
  Residual Fe in extracted pellet: 248 mg/kg
  Residual Mg in extracted pellet: 226 mg/kg
  Residual Zn in extracted pellet: 56 mg/kg
[3]; chelator 2.0 mM
  Residual Al in extracted pellet: 42 mg/kg
  Residual Ca in extracted pellet: 1602 mg/kg
  Residual Cu in extracted pellet: 14 mg/kg
  Residual Fe in extracted pellet: 271 mg/kg
  Residual Mg in extracted pellet: 254 mg/kg
  Residual Zn in extracted pellet: 49 mg/kg
[3]; chelator 5.0 mM
  Residual Al in extracted pellet: 38 mg/kg
  Residual Ca in extracted pellet: 912 mg/kg
  Residual Cu in extracted pellet: 15 mg/kg
  Residual Fe in extracted pellet: 249 mg/kg
  Residual Mg in extracted pellet: 238 mg/kg
  Residual Zn in extracted pellet: 53 mg/kg
Aβ1-42
  effect on H2O2 formation by Aβ1-42: substantially inhibited; also recorded: inhibited H2O2 formation
Aβ
  effect on Cu^2+-induced SDS-resistant Aβ polymerization: marked decrease in polymerization
[4]; Cu^2+
  Stability constant logK10, Cu^2+: 6.1
[4]; Cu^+
  Stability constant logK10, Cu^+: 19.1
[5]
  Stability constant logK10, Zn: 4.1
[6]
  Stability constant logK10, Co: 4.2
